This passage reports IC50 and PHD2/PHD1 results from patent US9409892B2, “4-hydroxy-isoquinoline compounds as HIF hydroxylase inhibitors” (FIBROGEN, INC., priority 2012, dated 2016).

The target in one assay is PHD1 (EGLN2) (Homo sapiens (Human), UniProt Q96KS0). Description: HIF-PH assay (14CO2 capture), PHD1 enzyme inhibition. Format: biochemical. Particulars: for IC50: individual measurement, read-out: IC50 (μM) PHD1. From the text:
(§1) Ketoglutaric acid α-[1-^14C]-sodium salt, alpha-ketoglutaric acid sodium salt, and HPLC purified peptide may be obtained from commercial sources, e.g., Perkin-Elmer (Wellesley Mass.), Sigma-Aldrich, and SynPep Corp. (Dublin Calif.), respectively. Peptides for use in the assay may be fragments of HIFα as described above or as disclosed in International Publication WO 2005/118836, incorporated by reference herein. HIF-pH, e.g., PHD1 (EGLN2) or PHD2 (EGLN1), can be expressed in, e.g., insect Hi5 cells, and partially purified, e.g., through a SP ion exchange chromatography column. Enzyme activity is determined by capturing ^14CO2 using an assay described by Kivirikko and Myllyla (1982, Methods Enzymol. 82:245-304). Assay reactions contain 50 mM HEPES (pH 7.4), 100 μM α-ketoglutaric acid sodium salt, 0.30 mCi/mL ketoglutaric acid α-[1-^14C]-sodium salt, 40 μM FeSO4, 1 mM ascorbate, 1541.8 units/mL Catalase, with or without 50 μM peptide substrate and various concentrations of compound of the invention. Reactions are initiated by addition of HIF-PH enzyme.
(§2) The peptide-dependent percent turnover is calculated by subtracting percent turnover in the absence of peptide from percent turnover in the presence of substrate peptide. Percent inhibition and IC50 are calculated using peptide-dependent percent turnover at given inhibitor concentrations. Calculation of IC50 values for each inhibitor is conducted using GraFit software (Erithacus Software Ltd., Surrey UK).
(§3) The PHD2/PHD1 is the ratio of the IC50 of the compound for each enzyme.

The next assay addresses PHD2 (EGLN1) (Homo sapiens (Human), UniProt Q9GZT9). Nature of the assay: HIF-PH assay (14CO2 capture), PHD2 enzyme inhibition. The following applies: Table 1; individual measurement; read-out: IC50 (μM) PHD2. Format: biochemical.
Source text: as §1, §2, §3

[1] abbreviates: Table 1, ratio of the IC50 of the compound for each enzyme.
Where [2] appears, read: Table 2 comparative data, IC50 PHD2/IC50 PHD1.

Chain of PHD2 (EGLN1) (Q9GZT9 whole entry): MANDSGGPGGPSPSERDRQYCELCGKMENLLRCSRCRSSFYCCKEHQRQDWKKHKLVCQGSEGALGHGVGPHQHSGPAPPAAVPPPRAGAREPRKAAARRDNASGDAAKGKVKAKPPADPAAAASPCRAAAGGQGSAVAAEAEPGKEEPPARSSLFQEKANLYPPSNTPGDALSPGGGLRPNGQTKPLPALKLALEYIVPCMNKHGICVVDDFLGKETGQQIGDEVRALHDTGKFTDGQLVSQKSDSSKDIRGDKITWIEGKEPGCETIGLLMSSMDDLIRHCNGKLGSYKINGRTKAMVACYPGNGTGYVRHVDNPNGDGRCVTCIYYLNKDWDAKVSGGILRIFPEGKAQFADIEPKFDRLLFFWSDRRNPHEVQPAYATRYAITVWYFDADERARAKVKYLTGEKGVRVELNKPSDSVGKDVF
Chain of PHD1 (EGLN2) (Q96KS0 whole entry, the tested form may be a part): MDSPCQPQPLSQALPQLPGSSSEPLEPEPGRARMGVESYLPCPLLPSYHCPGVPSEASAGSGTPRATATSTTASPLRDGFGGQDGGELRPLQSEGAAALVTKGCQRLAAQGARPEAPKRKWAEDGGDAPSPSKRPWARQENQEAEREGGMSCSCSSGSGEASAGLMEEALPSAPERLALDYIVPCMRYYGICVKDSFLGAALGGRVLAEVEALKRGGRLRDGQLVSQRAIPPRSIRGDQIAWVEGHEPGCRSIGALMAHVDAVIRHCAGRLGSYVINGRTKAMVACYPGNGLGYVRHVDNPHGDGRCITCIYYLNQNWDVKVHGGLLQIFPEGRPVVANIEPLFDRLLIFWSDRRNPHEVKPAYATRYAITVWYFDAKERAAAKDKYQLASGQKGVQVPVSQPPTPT

Consider `N#Cc1nc(C(=O)N[C@H]2CCCC[C@H]2C(=O)O)c(O)c2ccc(Oc3ccccc3)cc12` (relative stereo) [Compound 32, cis-2-(1-Cyano-4-hydroxy-7-phenoxyisoquinoline-3-carboxamido)cyclohexanecarboxylic acid], for which the IC50 – broadly, the concentration that inhibits the measured activity by half – on PHD1 (EGLN2) (Table 1) amounted to 27.9 µM; on PHD2 (EGLN1), 182 µM. Besides, the PHD2/PHD1 at PHD1 (EGLN2) (setting [1]) is given as 6.

Turning to `N#Cc1nc(C(=O)N[C@H]2CCC[C@H]2C(=O)O)c(O)c2ccc(Oc3ccccc3)cc12` (relative stereo) [Compound 33, cis-2-[(1-Cyano-4-hydroxy-7-phenoxy-isoquinoline-3-carbonyl)-amino]-cyclopentanecarboxylic acid], the half-inhibitory concentration (IC50) was found to be 16.9 µM on PHD1 (EGLN2) (Table 1) and 94.8 µM on PHD2 (EGLN1). Also, the PHD2/PHD1 on PHD1 (EGLN2) (setting [1]) came out at 6.

For the compound `O=C(O)CCNC(=O)c1ncc2cc(Oc3ccccc3)ccc2c1O` [Compound 1, 3-[(4-Hydroxy-7-phenoxy-isoquinoline-3-carbonyl)-amino]propionic acid], the IC50 stood at 0.92 µM at PHD1 (EGLN2) (Table 1) and 10.3 µM on PHD2 (EGLN1). The PHD2/PHD1 at PHD1 (EGLN2) (setting [1]) and at PHD1 (EGLN2) (setting [2]) was 11 in each case.

Regarding `CC(C)(CNC(=O)c1ncc2cc(Oc3ccccc3)ccc2c1O)C(=O)O` [Compound 2, 3-[(4-Hydroxy-7-phenoxy-isoquinoline-3-carbonyl)-amino]-2,2-dimethyl-propionic acid], the 50% inhibitory concentration (IC50) worked out at 5.5 µM at PHD1 (EGLN2) (Table 1) and 46.7 µM on PHD2 (EGLN1). For the same compound, the PHD2/PHD1 on PHD1 (EGLN2) (setting [1]) came to 8.

As to `O=C(NC[C@H](O)C(=O)O)c1ncc2cc(Oc3ccccc3)ccc2c1O` [Compound 3, 2-(S)-Hydroxy-3-[(4-hydroxy-7-phenoxy-isoquinoline-3-carbonyl)-amino]propionic acid], the IC50 came out at 1.08 µM on PHD1 (EGLN2) (Table 1) and 15.6 µM on PHD2 (EGLN1). Also, the PHD2/PHD1 at PHD1 (EGLN2) (setting [1]) and at PHD1 (EGLN2) (setting [2]) was 14 in each case.

With `O=C(O)CCCNC(=O)c1ncc2cc(Oc3ccccc3)ccc2c1O` [Compound 4, 4-[(4-Hydroxy-7-phenoxy-isoquinoline-3-carbonyl)-amino]-butyric acid], the values for the IC50 on PHD1 (EGLN2) (Table 1) and at PHD2 (EGLN1) were 1.17 µM and 7 µM, respectively. For the same compound, the PHD2/PHD1 on PHD1 (EGLN2) (setting [1]) was 6.

On to `O=C(O)CCCCNC(=O)c1ncc2cc(Oc3ccccc3)ccc2c1O` [Compound 5, 5-[(4-Hydroxy-7-phenoxy-isoquinoline-3-carbonyl)-amino]-pentanoic acid], for which the results for the IC50 on PHD1 (EGLN2) (Table 1) and at PHD2 (EGLN1) were 2.75 µM and 61.7 µM, respectively. The PHD2/PHD1 on PHD1 (EGLN2) (setting [1]) amounted to 22.

For `CC(C)(CC(=O)O)NC(=O)c1ncc2cc(Oc3ccccc3)ccc2c1O` [Compound 6, 3-[(4-Hydroxy-7-phenoxy-isoquinoline-3-carbonyl)-amino]-3-methyl-butyric acid], the IC50 at PHD1 (EGLN2) (Table 1) came to 8.19 µM; at PHD2 (EGLN1), 192 µM. Also, the PHD2/PHD1 at PHD1 (EGLN2) (setting [1]) and on PHD1 (EGLN2) (setting [2]) was 23 each time.

For `O=C(NCC[C@H](O)C(=O)O)c1ncc2cc(Oc3ccccc3)ccc2c1O` [Compound 7, 2-(S)-Hydroxy-4-[(4-hydroxy-7-phenoxy-isoquinoline-3-carbonyl)-amino]-butyric acid], the IC50 on PHD1 (EGLN2) (Table 1) was 3.02 µM; on PHD2 (EGLN1) it was 52.7 µM. Besides, at PHD1 (EGLN2) (setting [1]), the PHD2/PHD1 stood at 17.

For the compound `CC(C)(CCNC(=O)c1ncc2cc(Oc3ccccc3)ccc2c1O)C(=O)O` [Compound 8, 4-[(4-Hydroxy-7-phenoxy-isoquinoline-3-carbonyl)-amino]-2,2-dimethyl-butyric acid], the IC50 at PHD1 (EGLN2) (Table 1) is 11.6 µM; at PHD2 (EGLN1) it was 119 µM. Moreover, the PHD2/PHD1 on PHD1 (EGLN2) (setting [1]) worked out at 10.

For the compound `N[C@@H](CNC(=O)c1ncc2cc(Oc3ccccc3)ccc2c1O)C(=O)O` [Compound 9, 2-(S)-Amino-3-[(4-hydroxy-7-phenoxy-isoquinoline-3-carbonyl)-amino]-propionic acid], the results for the IC50 at PHD1 (EGLN2) (Table 1) and on PHD2 (EGLN1) were 33.9 µM and greater than 200 µM, respectively. At PHD1 (EGLN2) (setting [1]), the PHD2/PHD1 is on record as 6.

`N#Cc1nc(C(=O)NCCC(=O)O)c(O)c2ccc(Oc3ccccc3)cc12` [Compound 10, 3-[(1-Cyano-4-hydroxy-7-phenoxy-isoquinoline-3-carbonyl)-amino]-propionic acid]: the IC50 at PHD1 (EGLN2) (Table 1) was 0.24 µM; at PHD2 (EGLN1), 1.33 µM. Also, the PHD2/PHD1 at PHD1 (EGLN2) (setting [1]) and at PHD1 (EGLN2) (setting [2]) was 5 in each case.

With `CC(CC(=O)O)NC(=O)c1nc(C#N)c2cc(Oc3ccccc3)ccc2c1O` (centres unmarked) [Compound 11, 3-[(1-Cyano-4-hydroxy-7-phenoxy-isoquinoline-3-carbonyl)-amino]butyric acid], the figures for the IC50 on PHD1 (EGLN2) (Table 1) and at PHD2 (EGLN1) were 1.37 µM and 56.6 µM, respectively. Also, the PHD2/PHD1 at PHD1 (EGLN2) (setting [1]) and at PHD1 (EGLN2) (setting [2]) was 41 each time.

With `N#Cc1nc(C(=O)NCC2(C(=O)O)CC2)c(O)c2ccc(Oc3ccccc3)cc12` [Compound 12, 1-{[(1-Cyano-4-hydroxy-7-phenoxy-isoquinoline-3-carbonyl)-amino]-methyl}-cyclopropanecarboxylic acid], the IC50 on PHD1 (EGLN2) (Table 1) worked out at 0.17 µM; at PHD2 (EGLN1) it was 1.62 µM. In addition, at PHD1 (EGLN2) (setting [1]), the PHD2/PHD1 was determined as 9.

In the case of `O=C(NCC1(C(=O)O)CCC1)c1ncc2cc(Oc3ccccc3)ccc2c1O` [Compound 13, 1-{[(4-Hydroxy-7-phenoxy-isoquinoline-3-carbonyl)-amino]-methyl}-cyclobutanecarboxylic acid], the IC50 on PHD1 (EGLN2) (Table 1) was 5.51 µM; on PHD2 (EGLN1), 40.8 µM. Besides, the PHD2/PHD1 on PHD1 (EGLN2) (setting [1]) is recorded as 7.

For `N#Cc1nc(C(=O)NCC2(C(=O)O)CCC2)c(O)c2ccc(Oc3ccccc3)cc12` [Compound 14, 1-{[(1-Cyano-4-hydroxy-7-phenoxy-isoquinoline-3-carbonyl)-amino]-methyl}-cyclobutanecarboxylic acid], the 50% inhibitory concentration (IC50) at PHD1 (EGLN2) (Table 1) turned out to be 0.31 µM; at PHD2 (EGLN1) it was 3.52 µM. At PHD1 (EGLN2) (setting [1]), the PHD2/PHD1 turned out to be 11.

Regarding `O=C(NCC1(C(=O)O)CCOCC1)c1ncc2cc(Oc3ccccc3)ccc2c1O` [Compound 15, 4-{[(4-Hydroxy-7-phenoxy-isoquinoline-3-carbonyl)-amino]-methyl}-tetrahydro-pyran-4-carboxylic acid], the IC50 amounted to 9.71 µM at PHD1 (EGLN2) (Table 1) and 51.5 µM at PHD2 (EGLN1). Further, the PHD2/PHD1 at PHD1 (EGLN2) (setting [1]) stood at 5.

As to `N#Cc1nc(C(=O)NCC2(C(=O)O)CCOCC2)c(O)c2ccc(Oc3ccccc3)cc12` [Compound 16, 4-{[(1-Cyano-4-hydroxy-7-phenoxy-isoquinoline-3-carbonyl)-amino]-methyl}-tetrahydro-pyran-4-carboxylic acid], the results for the IC50 on PHD1 (EGLN2) (Table 1) and at PHD2 (EGLN1) were 1.89 µM and 24.3 µM, respectively. On PHD1 (EGLN2) (setting [1]), the PHD2/PHD1 turned out to be 13.

For the compound `CCCC(CNC(=O)c1nc(C#N)c2cc(Oc3ccccc3)ccc2c1O)C(=O)O` (centres unmarked) [Compound 17, 2-{[(1-Cyano-4-hydroxy-7-phenoxy-isoquinoline-3-carbonyl)-amino]-methyl}-pentanoic acid], the IC50 turned out to be 3.39 µM on PHD1 (EGLN2) (Table 1) and 47.9 µM at PHD2 (EGLN1). The PHD2/PHD1 on PHD1 (EGLN2) (setting [1]) is reported as 14.

`CCCC(CCC)(CNC(=O)c1nc(C#N)c2cc(Oc3ccccc3)ccc2c1O)C(=O)O` [Compound 18, 2-{[(1-Cyano-4-hydroxy-7-phenoxy-isoquinoline-3-carbonyl)-amino]-methyl}-2-propyl-pentanoic acid]: the IC50 on PHD1 (EGLN2) (Table 1) came out at 4.43 µM; at PHD2 (EGLN1), 29.9 µM. The PHD2/PHD1 at PHD1 (EGLN2) (setting [1]) was determined as 7.

Regarding `N#Cc1nc(C(=O)N[C@H](CC(=O)O)Cc2ccccc2)c(O)c2ccc(Oc3ccccc3)cc12` [Compound 67, (S)-3-[(1-Cyano-4-hydroxy-7-phenoxy-isoquinoline-3-carbonyl)-amino]-4-phenyl-butyric acid], on PHD1 (EGLN2) (Table 1), the IC50 came to 3.43 µM.

Regarding `N#Cc1nc(C(=O)N[C@@H](CC(=O)O)Cc2ccccc2)c(O)c2ccc(Oc3ccccc3)cc12` [Compound 68, (R)-3-[(1-Cyano-4-hydroxy-7-phenoxy-isoquinoline-3-carbonyl)-amino]-4-phenyl-butyric acid], the concentration for half-maximal inhibition (IC50) on PHD1 (EGLN2) (Table 1) worked out at 2.27 µM.

Consider `CC(C)(CC(=O)O)NC(=O)c1nc(C#N)c2cc(Oc3ccccc3)ccc2c1O` [Compound 82, 3-[(1-Cyano-4-hydroxy-7-phenoxy-isoquinoline-3-carbonyl)-amino]-3-methyl-butyric acid], for which the PHD2/PHD1 on PHD1 (EGLN2) (setting [1]) worked out at 23.

Compound `O=C(O)CNC(=O)c1ncc2cc(Oc3ccccc3)ccc2c1O` [U.S. Pat. No. 7,323,475; Example D-7, 2-[(4-Hydroxy-7-phenoxy-isoquinoline-3-carbonyl)-amino]-acetic acid, reference compound] displayed a PHD2/PHD1 at PHD1 (EGLN2) (setting [2]) of 1.5.

With `O=C(O)CNC(=O)c1ncc2cc(Oc3cccnc3)ccc2c1O` [U.S. Pat. No. 7,323,475; Example D-67, 2-{[4-Hydroxy-7-(pyridin-3-yloxy)-isoquinoline-3-carbonyl]-amino}-acetic acid, reference compound], the PHD2/PHD1 at PHD1 (EGLN2) (setting [2]) is 3.

Compound `N#Cc1nc(C(=O)NCC(=O)O)c(O)c2ccc(Oc3ccccc3)cc12` [U.S. Pat. No. 7,928,120; Example 3, 2-[(1-Cyano-4-hydroxy-7-phenoxy-isoquinoline-3-carbonyl)-amino]-acetic acid, reference compound] had a PHD2/PHD1 on PHD1 (EGLN2) (setting [2]) of 0.4.
